Data: article PMC9780499, “Designing double-site lipidated peptide amphiphiles as potent antimicrobial biomaterials to combat multidrug-resistant bacteria” (Frontiers in Microbiology, 2022)
Converted amounts (≈) assume the structure as drawn. Like-named read-outs stand apart in the source and are kept apart here. Ends that are not written are not given here. Peptide text beside a SMILES is read from it. * marks the point of attachment. Decanoyl = CCCCCCCCCC(=O)*; Butyryl = CCCC(=O)*

Legend:
E. coli HP73 = experiment: microbe, parasite or virus in culture; format: cell-based, Escherichia coli; details: read-out: MICs, E. coli HP73
Source text: (§1) Escherichia coli ATCC25922, E. coli UB1005, Pseudomonas aeruginosa ATCC27853, Salmonella typhimurium ATCC14028, S. typhimurium C7731, Staphylococcus aureus ATCC29213, Methicillin-resistant S. aureus (MRSA) ATCC43300, S. epidermidis ATCC12228, and Enterococcus faecalis ATCC29212 were stored by the institute of animal nutrition, Northeast Agricultural University (Harbin, China). Multidrug-Resistant E. coli HP73 and E. coli HP74 were clinically isolated from swine-derived Escherichia coli and stored by the institute of animal nutrition, Northeast Agricultural University (Harbin, China).
(§2) The MICs were determined using a broth microdilution method with reference to Clinical and Laboratory Standards Institute (CLSI) guidelines ([Wiegand et al., 2008]). After a two-fold serial dilution of the peptides (50 μl, dilution buffer: 0.01% acetic acid containing 0.2% BSA) prepared in a 96-well plate, a series of an equal volume of bacterial solution (50 μl) prepared in Mueller-Hinton broth (MHB) were added to the same 96-well plate, and the final bacterial inoculum size in each well of the 96-well plate was approximately 5 × 10^5 CFU/ml. As positive and negative controls, bacteria solution without peptides and blank samples without bacteria were prepared in the same 96-well plate. […] The lowest peptide concentration at which there was no increase in optical density was referred to as the MIC.

E. coli HP74 = experiment: microbe, parasite or virus in culture; format: cell-based, Escherichia coli; details: read-out: MICs, E. coli HP74
Source text: as §1, §2

HEK293T = experiment: MTT cytotoxicity assay; format: cell-based, human; details: 1 day incubation; for Cytotoxicity toward HEK293T: at the test concentrations
Experimental: (§3) 3-(4,5-dimethylthiozol-2-yl)-2,5-diphenyltetrazolium bromide (MTT) assay and live/dead cell staining assay were conducted to assess the peptide cytotoxicity. For the MTT assay, cell lines were seeded and passaged twice in high-glucose Dulbecco’s modified Eagle’s medium (DMEM, containing 100 μg/ml streptomycin, 100 U/ml penicillin, and 10% vol/vol fetal bovine serum) or Dulbecco’s Modified Eagle Medium/Nutrient Mixture F-12 (DMEM/F-12, containing 100 μg/ml streptomycin, 100 U/ml penicillin, and 10% vol/vol fetal bovine serum) at a 5% CO2 incubator (37°C). The cells (approximately 50,000 cells per well) were cultured in a 96-well plate at a 5% CO2 incubator for 1 day. Then various concentrations of peptide solutions (50 μl) were added to the plate and incubated for another 1 day. The cells solution without peptides and blank samples without cells and peptides were prepared in the same 96-well plate as positive and negative controls, respectively. Subsequently, MTT (0.5 mg/ml, 20 μl per well) was added and the plate was incubated for another 4 h. Removed all supernatant from the plate and added 150 μl of dimethyl sulfoxide. Finally, a microplate reader (Tecan GENios F129004, Austria) was used to record the absorbance data at OD570 nm. Melittin was employed as a control peptide. The cell viability was calculated using the previously described equation ([Lai et al., 2021]).

IPEC-J2 = experiment: MTT cytotoxicity assay; format: cell-based, porcine; details: 1 day incubation; for Cytotoxicity toward IPEC-J2: at the test concentrations
Experimental: as §3

E. coli 25922 = format: cell-based, Escherichia coli; details: 25922, 20 h
Source text: as §1, §2

E. coli UB1005 = format: cell-based, Escherichia coli; details: UB1005, 20 h
Source text: as §1, §2

P. aeruginosa 27853 = format: cell-based, Pseudomonas aeruginosa; details: 27853, 20 h
Source text: as §1, §2

S. typhimurium 14028 = format: cell-based, Salmonella typhimurium; details: 14028, 20 h
Source text: as §1, §2

S. typhimurium C7731 = format: cell-based, Salmonella typhimurium; details: C7731, 20 h
Source text: as §1, §2

S. aureus 29213 = format: cell-based, Staphylococcus aureus; details: 29213, 20 h
Source text: as §1, §2

S. epidermidis 12228 = format: cell-based; details: 12228, 20 h
Source text: as §1, §2

E. faecalis 29212 = format: cell-based, Enterococcus faecalis; details: 29212, 20 h
Source text: as §1, §2

MRSA 43300 = format: cell-based, Methicillin-resistant S. aureus; details: 43300, 20 h
Source text: as §1, §2

9 bacterial strains = experiment: Geometric mean MIC over the 9 bacterial strains; format: cell-based; details: geometric mean of the 9 strains of Table 1
Experimental: as §2

[1] = Escherichia coli, HP73, multidrug-resistant, colistin-resistant swine clinical isolate, broth microdilution, MHB, 37°C 20 h
[2] = Escherichia coli, HP74, multidrug-resistant, colistin-resistant swine clinical isolate, broth microdilution, MHB, 37°C 20 h
[3] = multidrug-resistant, colistin-resistant swine clinical isolate, broth microdilution, MHB, 37°C 20 h

## CC(C)(O/N=C(\C(=O)N[C@@H]1C(=O)N2C(C(=O)[O-])=C(C[n+]3ccccc3)CS[C@H]12)c1csc(N)n1)C(=O)O [Ceftazidime]
E. coli HP73; [1]
  MIC: 128 µM (≈ 70 µg/mL)
E. coli HP74; [2]
  MIC: 32 µM (≈ 17.5 µg/mL)

## CC[C@H]1OC(=O)[C@H](C)[C@@H](O[C@H]2C[C@@](C)(OC)[C@@H](O)[C@H](C)O2)[C@H](C)[C@@H](O[C@@H]2O[C@H](C)C[C@H](N(C)C)[C@H]2O)[C@](C)(O)C[C@@H](C)C(=O)[C@H](C)[C@@H](O)[C@]1(C)O [Erythromycin]
E. coli HP73; [1]
  MIC: > 128 µM
E. coli HP74; [2]
  MIC: > 128 µM

## CNC(C)C1CCC(N)C(OC2C(N)CC(N)C(OC3OCC(C)(O)C(NC)C3O)C2O)O1 (stereo not shown) [Gentamicin]
E. coli HP73; [1]
  MIC: 128 µM (≈ 61.1 µg/mL)
E. coli HP74; [2]
  MIC: 128 µM (≈ 61.1 µg/mL)

## CC[C@H](C)[C@H](NC(=O)CN)C(=O)NCC(=O)N[C@@H](C)C(=O)N[C@H](C(=O)N[C@@H](CC(C)C)C(=O)N[C@@H](CCCCN)C(=O)N[C@H](C(=O)N[C@@H](CC(C)C)C(=O)N[C@H](C(=O)N[C@H](C(=O)NCC(=O)N[C@@H](CC(C)C)C(=O)N1CCC[C@H]1C(=O)N[C@@H](C)C(=O)N[C@@H](CC(C)C)C(=O)N[C@H](C(=O)N[C@@H](CO)C(=O)N[C@@H](Cc1c[nH]c2ccccc12)C(=O)N[C@H](C(=O)N[C@@H](CCCCN)C(=O)N[C@@H](CCCNC(=N)N)C(=O)N[C@@H](CCCCN)C(=O)N[C@@H](CCCNC(=N)N)C(=O)N[C@@H](CCC(N)=O)C(=O)N[C@@H](CCC(N)=O)C(N)=O)[C@@H](C)CC)[C@@H](C)CC)[C@@H](C)O)[C@@H](C)O)C(C)C)C(C)C [Melittin, reference compound]
HEK293T
  Concentration above which significant cytotoxicity toward HEK293T: greater than 8 μM
IPEC-J2
  Concentration above which significant cytotoxicity toward IPEC-J2: > 16 µM

## CCn1cc(C(=O)O)c(=O)c2cc(F)c(N3CCNCC3)cc21 [Norfloxacin]
E. coli HP73; [1]
  MIC: > 128 µM
E. coli HP74; [2]
  MIC: 128 µM (≈ 40.9 µg/mL)

## CC1COc2c(N3CCN(C)CC3)c(F)cc3c(=O)c(C(=O)O)cn1c23 (stereo not shown) [Ofloxacin]
E. coli HP73; [1]
  MIC: > 128 µM
E. coli HP74; [2]
  MIC: > 128 µM

## CO[C@H]1/C=C/O[C@@]2(C)Oc3c(C)c(O)c4c(O)c(c(/C=N/N5CCN(C)CC5)c(O)c4c3C2=O)NC(=O)/C(C)=C\C=C\[C@H](C)[C@H](O)[C@@H](C)[C@@H](O)[C@@H](C)[C@H](OC(C)=O)[C@@H]1C [Rifampicin]
E. coli HP73; [1]
  MIC: > 128 µM
E. coli HP74; [2]
  MIC: 16 µM (≈ 13.2 µg/mL)

## CN[C@H](CC(C)C)C(=O)N[C@H]1C(=O)N[C@@H](CC(N)=O)C(=O)N[C@H]2C(=O)N[C@H]3C(=O)N[C@H](C(=O)N[C@H](C(=O)O)c4cc(O)cc(O)c4-c4cc3ccc4O)[C@H](O)c3ccc(c(Cl)c3)Oc3cc2cc(c3O[C@@H]2O[C@H](CO)[C@@H](O)[C@H](O)[C@H]2O[C@H]2C[C@](C)(N)[C@H](O)[C@H](C)O2)Oc2ccc(cc2Cl)[C@H]1O [Vancomycin]
E. coli HP73; Escherichia coli, HP73, 20 h
  MIC: 64 µM (≈ 92.8 µg/mL)
E. coli HP74; Escherichia coli, HP74, 20 h
  MIC: 32 µM (≈ 46.4 µg/mL)

## CCCC(=O)NCCCC[C@H](NC(=O)[C@H](CC(C)C)NC(=O)[C@H](CCCCN)NC(=O)[C@H](CCCCN)NC(=O)[C@H](CC(C)C)NC(=O)[C@H](CCCCNC(=O)CCC)NC(=O)[C@H](CCCCN)NC(=O)[C@H](CCCCN)NC(=O)[C@H](CC(C)C)NC(=O)[C@H](CCCCN)NC(=O)[C@H](CCCCN)NC(=O)[C@H](CC(C)C)NC(=O)[C@@H](N)Cc1c[nH]c2ccccc12)C(=O)N[C@@H](CCCCN)C(=O)N[C@@H](CCCCN)C(=O)O [WL-C4] (H-WLKKLKKK(Butyryl)LKKLK(Butyryl)KK-OH)
E. coli 25922
  MICs, E. coli 25922: 8 µM
E. coli UB1005
  MICs, E. coli UB1005: 4 µM
P. aeruginosa 27853
  MICs, P. aeruginosa 27853: 2 µM
S. typhimurium 14028
  MICs, S. typhimurium 14028: 4 µM
S. typhimurium C7731
  MICs, S. typhimurium C7731: 4 µM
S. aureus 29213
  MICs, S. aureus 29213: 16 µM
S. epidermidis 12228
  MICs, S. epidermidis 12228: 16 µM
E. faecalis 29212
  MICs, E. faecalis 29212: 32 µM
MRSA 43300
  MICs, MRSA 43300: 16 µM
9 bacterial strains
  GM, geometric mean MICs from the 9 bacterial strains: 8.00 µM
HEK293T
  Cytotoxicity toward HEK293T: no significant cytotoxicity
IPEC-J2
  Cytotoxicity toward IPEC-J2: no significant cytotoxicity

## CCCCCCCCCC(=O)NCCCC[C@H](NC(=O)[C@H](CC(C)C)NC(=O)[C@H](CCCCN)NC(=O)[C@H](CCCCN)NC(=O)[C@H](CC(C)C)NC(=O)[C@H](CCCCNC(=O)CCCCCCCCC)NC(=O)[C@H](CCCCN)NC(=O)[C@H](CCCCN)NC(=O)[C@H](CC(C)C)NC(=O)[C@H](CCCCN)NC(=O)[C@H](CCCCN)NC(=O)[C@H](CC(C)C)NC(=O)[C@@H](N)Cc1c[nH]c2ccccc12)C(=O)N[C@@H](CCCCN)C(=O)N[C@@H](CCCCN)C(=O)O [WL-C10] (H-WLKKLKKK(Decanoyl)LKKLK(Decanoyl)KK-OH)
E. coli 25922
  MICs, E. coli 25922: >64 µM
E. coli UB1005
  MICs, E. coli UB1005: 16 µM
P. aeruginosa 27853
  MICs, P. aeruginosa 27853: >128 µM
S. typhimurium 14028
  MICs, S. typhimurium 14028: >128 µM
S. typhimurium C7731
  MICs, S. typhimurium C7731: >128 µM
S. aureus 29213
  MICs, S. aureus 29213: >128 µM
S. epidermidis 12228
  MICs, S. epidermidis 12228: >128 µM
E. faecalis 29212
  MICs, E. faecalis 29212: >128 µM
MRSA 43300
  MICs, MRSA 43300: >128 µM
9 bacterial strains
  GM, geometric mean MICs from the 9 bacterial strains: 94.06 µM
HEK293T
  Concentration above which significant cytotoxicity toward HEK293T: greater than 32 μM
IPEC-J2
  Concentration above which significant cytotoxicity toward IPEC-J2: greater than 32 μM

## Colistin
E. coli HP73; [3]
  MIC: 4 µM
E. coli HP74; [3]
  MIC: 4 µM

## Kanamycin A
E. coli HP73; [3]
  MIC: >128 µM
E. coli HP74; [3]
  MIC: >128 µM

## Polymyxin B
E. coli HP73; [3]
  MIC: 8 µM
E. coli HP74; [3]
  MIC: 4 µM

## WLKKLKKK(Ac)LKKLK(Ac)KK [WL-C2]
E. coli 25922
  MICs, E. coli 25922: 8 µM
E. coli UB1005
  MICs, E. coli UB1005: 8 µM
P. aeruginosa 27853
  MICs, P. aeruginosa 27853: 16 µM
S. typhimurium 14028
  MICs, S. typhimurium 14028: 16 µM
S. typhimurium C7731
  MICs, S. typhimurium C7731: 16 µM
S. aureus 29213
  MICs, S. aureus 29213: 64 µM
S. epidermidis 12228
  MICs, S. epidermidis 12228: 64 µM
E. faecalis 29212
  MICs, E. faecalis 29212: 128 µM
MRSA 43300
  MICs, MRSA 43300: 64 µM
9 bacterial strains
  GM, geometric mean MICs from the 9 bacterial strains: 27.43 µM
HEK293T
  Cytotoxicity toward HEK293T: no significant cytotoxicity
IPEC-J2
  Cytotoxicity toward IPEC-J2: no significant cytotoxicity
